Results from the NIST ThermoML archive (doi:10.1021/je800505y).
Numbers after ± are expanded uncertainties.

Conditions: Liquid, Ebulliometric method (Recirculating still)

FCC(F)(F)F [1,1,1,2-tetrafluoroethane]
vapor or sublimation pressure (253.15 K): 131 ± 10 kPa | vapor or sublimation pressure (263.15 K): 203 ± 10 kPa | vapor or sublimation pressure (278.15 K): 353 ± 10 kPa | vapor or sublimation pressure (292.92 K): 571 ± 10 kPa

CCF [fluoroethane]
vapor or sublimation pressure (253.15 K): 214 ± 10 kPa | vapor or sublimation pressure (263.15 K): 311 ± 10 kPa | vapor or sublimation pressure (278.15 K): 517 ± 10 kPa | vapor or sublimation pressure (292.92 K): 802 ± 10 kPa
